Experimental data taken from PubChem BioAssay (NCI).
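96-well plates; 48 h exposure; 5 concentrations. Endpoints by linear interpolation between flanking doses. Not reached: highest tested concentration assigned. At the TGI there is no net growth.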

Experiments:
Test in all cases: DTP human tumour cell line panel, 48 h
CCRF-CEM leukemia = tested on: CCRF-CEM leukemia
EKVX NSCLC = tested on: EKVX NSCLC
HCT-15 colon = tested on: HCT-15 colon
KM12 colon = tested on: KM12 colon
LOX IMVI melanoma = tested on: LOX IMVI melanoma
M14 melanoma = tested on: M14 melanoma
NCI-H226 lung = tested on: NCI-H226 lung
OVCAR-3 ovarian = tested on: OVCAR-3 ovarian
RXF 393 renal = tested on: RXF 393 renal
SK-MEL-5 melanoma = tested on: SK-MEL-5 melanoma
SK-OV-3 ovarian = tested on: SK-OV-3 ovarian

Row | SMILES | TGI (CCRF-CEM leukemia) | TGI (EKVX NSCLC) | TGI (HCT-15 colon) | TGI (KM12 colon) | TGI (LOX IMVI melanoma) | TGI (M14 melanoma) | TGI (NCI-H226 lung) | TGI (OVCAR-3 ovarian) | TGI (RXF 393 renal) | TGI (SK-MEL-5 melanoma) | TGI (SK-OV-3 ovarian)
1 | O=C(O)CNC(=O)c1ccc([As](=O)(O)O)cc1 | > 100 µM | > 100 µM | > 100 µM | > 100 µM | > 100 µM | > 100 µM | > 100 µM | > 100 µM | > 100 µM | > 100 µM | > 100 µM
2 | O=C1C(Br)=Cc2c(Cl)sc(Cl)c21 | > 100 µM | 22.2 µM | 18.6 µM | 20.3 µM | 5.84 µM | 26.7 µM | > 100 µM | 12.1 µM | 6.17 µM | > 53.7 µM | 35.8 µM
3 | O=C1C(C=NCCc2c[nH]c3ccccc23)C(C(F)(F)F)=NN1c1nc2ccccc2s1 (stereo not drawn) | 57.8 µM | 62.9 µM | > 100 µM | – | 78.6 µM | > 100 µM | 68 µM | 50.1 µM | 48.5 µM | 37.1 µM | 76.2 µM
4 | CCN(CCCN(CC)C(=O)N[C@@H](Cc1ccccc1)C(=O)NC)C(=O)N[C@@H](Cc1ccccc1)C(=O)NC | – | > 100 µM | > 100 µM | > 100 µM | > 100 µM | > 100 µM | > 100 µM | > 100 µM | > 100 µM | > 100 µM | > 100 µM
5 | CSc1c(C(=O)Nc2ccc(C)cc2)c(N)[nH]c(=O)c1C#N | > 100 µM | > 100 µM | > 100 µM | > 100 µM | > 100 µM | > 100 µM | > 100 µM | > 100 µM | > 100 µM | > 100 µM | > 100 µM
6 | NCCCC(N)C(=O)O (stereo not drawn) | > 100 µM | > 100 µM | > 100 µM | > 100 µM | > 100 µM | > 100 µM | > 100 µM | > 100 µM | > 100 µM | > 100 µM | > 100 µM
7 | Cc1ccc(C2=Nc3c(c(C)nn3-c3ccccc3)N=C(C(=O)O)C2)cc1 | > 10 µM | > 10 µM | > 10 µM | > 10 µM | > 10 µM | > 10 µM | > 10 µM | > 10 µM | > 10 µM | > 10 µM | > 10 µM
8 | O=C1NC(=S)NC(=O)C1C(c1ccccc1[N+](=O)[O-])C1C(=O)NC(=S)NC1=O | > 100 µM | – | > 100 µM | > 100 µM | > 100 µM | > 100 µM | > 100 µM | > 100 µM | > 100 µM | > 100 µM | –
9 | O=c1c2cc(I)ccc2[nH]c(=S)n1Cc1ccccc1 | 23.1 µM | 35.4 µM | > 100 µM | > 100 µM | > 100 µM | > 100 µM | > 100 µM | > 100 µM | 78 µM | > 100 µM | > 100 µM
10 | CC(=O)/C(=C/n1c(=S)sc2ccccc21)C(=O)Nc1ccccc1C | – | > 100 µM | > 100 µM | > 100 µM | > 100 µM | > 100 µM | > 100 µM | > 100 µM | > 100 µM | > 100 µM | > 100 µM
11 | COc1cc2c(cc1OC)C(=O)/C(=C/c1cc(C)c(O)c(C)c1)C2 | > 100 µM | > 100 µM | > 100 µM | – | > 47.3 µM | > 100 µM | > 59.7 µM | > 100 µM | 0.439 µM | > 100 µM | > 100 µM
12 | CN1CCN(C(=S)N(C)C(=O)c2ccc(Cl)cc2)CC1 | > 100 µM | – | > 100 µM | > 100 µM | > 100 µM | > 100 µM | > 100 µM | > 100 µM | > 100 µM | > 100 µM | –
13 | CC(C)(CO)N1C(=O)c2ccccc2C1(O)c1ccc(Cl)cc1 (stereo not drawn) | > 100 µM | > 100 µM | > 100 µM | > 100 µM | – | > 100 µM | > 100 µM | > 100 µM | > 100 µM | > 100 µM | > 100 µM
14 | Cc1nc2ccc([N+](=O)[O-])cc2c(=O)n1C(=S)Nc1cccc(Cl)c1 | 62.3 µM | > 100 µM | 31 µM | 32.2 µM | 35.3 µM | 53.6 µM | 44 µM | 58.1 µM | 40 µM | 28.9 µM | 71.8 µM
15 | Brc1ccc2c3c1[C@@H]1O[C@@H]1c1cccc(c1-3)[C@@H]1O[C@H]21 | > 100 µM | 39.4 µM | 49.8 µM | 36 µM | 6.86 µM | 35.5 µM | > 100 µM | 52.6 µM | 32.3 µM | 33.4 µM | > 71.2 µM
16 | CN(O)C(=O)Cc1ccc(OCc2cccc(Cl)c2)cc1 | > 100 µM | > 100 µM | > 100 µM | > 100 µM | > 100 µM | > 100 µM | > 100 µM | > 100 µM | > 100 µM | > 100 µM | > 100 µM
17 | CC(C)=CC1C(C(=O)O)C1(C)C (stereo not drawn) | > 750 µM | > 750 µM | > 750 µM | > 750 µM | > 750 µM | – | > 750 µM | > 750 µM | > 750 µM | > 750 µM | > 750 µM
18 | CC(=O)CC(=O)c1cc2c(=O)oc(C)cc2oc1=O | > 37.5 µM | > 37.5 µM | > 37.5 µM | > 37.5 µM | – | > 37.5 µM | > 37.5 µM | > 37.5 µM | > 37.5 µM | > 37.5 µM | > 37.5 µM
19 | O=C1/C(=C/c2ccc([N+](=O)[O-])cc2)CNC/C1=C\c1ccc([N+](=O)[O-])cc1 | 2.97 µM | 33.9 µM | 3.06 µM | 4.41 µM | 5.93 µM | 28.7 µM | > 57.5 µM | 9.61 µM | 25.1 µM | 25.3 µM | > 100 µM
20 | CO/N=C1/c2sccc2[C@H](NC(=O)CNC(=O)OC(C)(C)C)[C@@H]1O | > 100 µM | > 100 µM | > 100 µM | – | > 100 µM | > 100 µM | > 100 µM | > 100 µM | > 100 µM | > 100 µM | > 100 µM
